# Patent US7226915B2, “Diaminopyrroloquinazolines compounds as protein tyrosine phosphatase inhibitors” (Hoffmann-La Roche Inc., priority 2003, dated 2007)
# pIC50: −log10 of the molar value. Counter-ions that a name gives are not always drawn.
# Target: T1, Human PTP1B (1-321) (Homo sapiens, UniProt P18031)
# T1 construct: Human PTP1B (1-321) was cloned from a human cDNA library; made in house; host or cells: E. coli
# T1 sequence (P18031 1-321): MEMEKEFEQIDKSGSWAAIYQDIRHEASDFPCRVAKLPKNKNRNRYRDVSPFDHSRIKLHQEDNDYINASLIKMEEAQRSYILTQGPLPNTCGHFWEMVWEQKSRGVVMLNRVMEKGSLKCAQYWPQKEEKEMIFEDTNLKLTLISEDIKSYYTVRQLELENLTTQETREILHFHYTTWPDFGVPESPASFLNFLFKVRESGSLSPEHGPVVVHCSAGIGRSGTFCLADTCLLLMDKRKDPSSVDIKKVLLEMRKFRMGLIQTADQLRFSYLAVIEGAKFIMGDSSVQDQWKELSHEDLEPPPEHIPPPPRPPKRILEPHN
# Assay: In vitro inhibition of PTP1B (PTPase assay)
# Assay type: biochemical
# Details: one of two methods: phosphopeptide substrate TRDI(pY)E with Malachite Green, or DiFMUP fluorescence; pH 6.2; read-out: IC50 (PTP1B inhibitory activity)
# Description: Human PTP1B (1-321) was cloned from a human cDNA library using conventional molecular biology techniques. The cDNA sequence was identical to the published human PTP1B sequence (Accession number M33689). The protein was expressed and purified from E. coli as described by Barford D. et. al J. Mol Biol (1994) 239, 726–730.
# The measurement of PTPase activity was carried out using one of two methods:
# The first method for the measurement of PTP1B inhibitory activity a tyrosine phosphorylated peptide based on the amino acid sequence of insulin receptor tyrosine autophosphorylation site 1146 (TRDI(pY)E) was used as substrate. The reaction conditions were as follows:
# PTP1B (0.5–2 nM) was incubated with compound for 15 min in buffer containing 37.5 mM Bis-Tris buffer pH 6.2, 140 mMNaCl, 0.05% BSA and 2 mM DTT. The reaction was started by the addition of 50 μM substrate. After 20 min at room temperature (22–25° C.), the reaction was stopped with KOH and the amount of free phosphate measured using Malachite Green as previously described (Harder et al. 1994 Biochem J. 298; 395).
# The second method was used for the measurement of general PTPase inhibitory activity across a panel of PTPases the substrate (6,8-difluoro-4-methylumbelliferyl phosphate (DiFMUP; from Molecular Probes) was used at the Km for each enzyme. The buffer conditions were identical as in the Malachite Green assay. The reaction was stopped with KOH. In this case the dephosphoryated product becomes fluorescent and the fluorescense read (Excitiation:360 mM/Emmission: 460 nM).
row,Structure (SMILES),pIC50
1,"CN(C)c1nc(N)nc2cc(-c3ccccc3C(F)(F)F)c3c(ccn3C)c12 [Example 4, 7,N1,N1-Trimethyl-6-(2-trifluoromethyl-phenyl)-7H-pyrrolo[3,2-f]quinazoline-1,3-diamine trifluoro-acetic acid salt]",5.02
2,"Nc1nc(NCCO)c2c(cc(-c3ccccc3C(F)(F)F)c3c2ccn3CCO)n1 [Example 8, 2-[3-Amino-7-(2-hydroxy-ethyl)-6-(2-trifluoromethyl-phenyl)-7H-pyrrolo[3,2-f]quinazolin-1-ylamino]-ethanol trifluoro-acetic acid salt]",4.95
3,"Cn1ccc2c3c(NCCCO)nc(N)nc3cc(-c3ccccc3C(F)(F)F)c21 [Example 6, 3-[3-Amino-7-methyl-6-(2-trifluoromethyl-phenyl)-7H-pyrrolo[3,2-f]quinazolin-1-ylamino]-propan-1-ol trifluoro-acetic acid salt]",4.99
4,"Cc1ccc(-c2cc3nc(N)nc(NCCO)c3c3ccn(C)c23)s1 [Example 2, 2-[3-Amino-7-methyl-6-(5-methyl-thiophen-2-yl)-7H-pyrrolo[3,2-f]quinazolin-1-ylamino]-ethanol trifluoro-acetic acid salt]",5.15
